Data on twelve compounds can be found in patent publication US5391751A, “2,2-dimethylchromene derivatives, process for their preparation and pharmaceutical compositions in which they are present” (priority 1987, dated 1995).

For orientation: LD50 means the dose at which mortality reaches 50%. Read a high LD50 as a less toxic substance.

The test system of series [1] is isolated rat portal vein. Briefly: Isolated rat portal vein: inhibition of spontaneous contractile activities. The settings on record: 0.25 h, 37° C., 15 min per concentration. Also noted: species or system rat (male Sprague Dawley). The method, then:
Male Sprague Dawley rats (250-300 g) are stunned and then bled after their throats have been cut. The portal vein, ligated in situ at two points 15 mm apart, is isolated, cut longitudinally and then mounted vertically in an experimental cell containing a physiological solution, at 37° C., of the following composition (mmol/1): NaCl:137; KC1:5.4; MgCl2 :1.05; CaCl2 :[…]; NaH2 PO4 :12; NaHCO3 :[…]; glucose: 11.5, into which a mixture of gases containing 95% of oxygen and 5% of carbon dioxide is bubbled.
The vein is subjected to a tension of 500 mg. After a period of stabilization (about 1 h 30 min), the spontaneous contractile activities are recorded with the aid of an isometric sensor. Each measurement is performed successively on 4 preparations.
The results are expressed in the form of the molar concentrations which causes a 50 per cent inhibition of the spontaneous contractile activities (IC50).

Series [2] deals with guinea-pig papillary muscle. Briefly: Guinea-pig papillary muscle: ventricular action potential (microelectrode method). Details: species or system guinea-pig (male Albino Charles River). The settings on record: for IC50: Cavia porcellus, 0.5 h, 36° C., 60 beats per minute, 30 minutes of perfusion per concentration, read-out: IC50: concentration which produces a 50 per cent reduction in the duration of the action potential. The method, then:
Male Albino Charles River guinea-pigs (300-400 g) are stunned and then bled after their throats have been cut. The heart is isolated and opened and the right papillary muscle is excised and then kept alive in an experimental cell containing a physiological solution at 36° C. (composition described above).
The preparation is stimulated with the aid of a bipolar electrode connected to a stimulator (frequency =60 beats per minute). The ventricular action potential is measured by the conventional microelectrode method. The characteristic parameters were measured on the action potentials (AP) before and after the introduction of the test product at 3 successive increasing concentrations (30 minutes of perfusion per concentration). The concentration which produces a 50 per cent reduction in the duration of the AP is indicated (IC50).

In series [3] the test system is spontaneously hypertensive rats (SHR). Briefly: Antihypertensive activity on vigilant spontaneously hypertensive rats (SHR). In kind it is in vivo, rat (male SHR, Wistar strain). On the procedure:
The experiment is performed on male SHR (of the Wistar strain) aged between 11 and 12 weeks; under pentobarbital anesthesia, a catheter is implanted in a carotid artery on the day before the experiment. In the experiment, the diastolic pressure (DP) and systolic pressure (SP) of the vigilant animals are recorded continuously 1 hour before and up to 2 hours after administration of the product. The heart rate (HR) is determined from the pulse pressure and recorded continuously for the same time.
The products were administered orally in a volume of 2 ml per 100 g of body weight after suspension in a 5% aqueous solution of gum arabic.

Series [4] is described as follows: in vivo. The series is classed as in vivo. The settings on record: mouse, in vivo; mice, oral administration.
The subject of series [5] is vigilant dogs. Briefly: Antiarrhythmic activity on vigilant dogs (acute infarction). The series is classed as in vivo, dog. The settings on record: orally, 0.03 mg/kg and 0.1 mg/kg. On the procedure: The method used is the one described by Dupuis et al. (Br. J. Pharmacol., 1976, 58, p. 409), in which an acute infarction is caused by the insertion of a copper spiral into the coronary circulation, with the thorax closed off. The ECG is measured by telemetry and the extrasystoles are analyzed and counted automatically While the animal is being monitored by an internal television circuit. The products were administered orally to animals presenting at least 50 per cent of extrasystoles.

Series [6] has as its system mice. As to the kind of experiment: in vivo. The series is classed as in vivo. The settings on record: oral administration.
The nature of series [7]: Overall comparison of activity, toxicity and therapeutic index with reference product. The settings on record: in the majority of the tests.

`CC1(C)Oc2ccc([N+](=O)[O-])cc2[C@@H](n2ccccc2=O)[C@@H]1O` (relative stereo) [Product F, trans-4-(1,2-dihydro-2-oxopyrid-1-yl)-2,2-dimethyl-6-nitrochroman-3-ol] came in with an IC50 in series [1] of 16 nM.

Consider `CC(=O)c1ccc2c(c1)C(n1ccccc1=O)=CC(C)(C)O2` [SR 45510, 6-Acetyl-4-(1,2-dihydro-2-oxopyrid-1-yl)-2,2-dimethylchromene], for which, in series [1], the IC50 stood at 11 nM.

For `CC1(C)Oc2ccc(Br)cc2[C@@H](n2ccccc2=O)[C@@H]1O` (relative stereo) [Product D, trans-6-bromo-4-(1,2-dihydro-2-oxopyrid-1-yl)-2,2-dimethylchroman-3-ol], the IC50 in series [1] was 250 nM.

Regarding `CC1(C)Oc2ccc(C#N)cc2[C@@H](n2ccccc2=O)[C@@H]1O` (relative stereo) [Product C, trans-6-cyano-4-(1,2-dihydro-2-oxopyrid-1-yl)-2,2-dimethylchroman-3-ol, reference compound], the IC50 amounted to 90 nM in series [1] and 20000 nM in series [2].

For the compound `CC1(C)C=C(n2ccccc2=O)c2cc(Cl)ccc2O1` [SR 45435, 6-Chloro-4-(1,2-dihydro-2-oxopyrid-1-yl)-2,2dimethylchromene], in series [1], the IC50 was 8 nM. Besides, in series [3] (0.20 mg/kg p.o.), the “Duration of the effect” value was above 120 min and the “Maximum decrease in mean blood pressure (± s.e.)” value (“Maximum decrease” below) is 70 ± 8 mm of mercury.

On to `CC(=O)c1ccc2c(c1)[C@@H](n1ccccc1=O)[C@H](O)C(C)(C)O2` (relative stereo) [Product G, trans-6-acetyl-4-(1,2-dihydro-2-oxopyrid-1-yl)-2,2-dimethylchroman-3-ol], for which, in series [1], the IC50 turned out to be 190 nM.

With `CC1(C)C=C(n2ccccc2=O)c2cc([N+](=O)[O-])ccc2O1` [SR 45509, 4-(1,2-Dihydro-2-oxopyrid-1-yl)-2,2-dimethyl-6-nitrochromene], the IC50 in series [1] was found to be 2.2 nM.

For `CC1(C)Oc2ccc(C#N)cc2[C@@H](N2CCCC2=O)[C@@H]1O` (relative stereo) [Product A, trans-6-cyano-4-(2-oxopyrrolidin-1-yl)-2,2-dimethyl-chroman-3-ol, reference compound], the IC50 in series [1] was 68 nM; in series [2] it was 16000 nM. Moreover, the results for the “Duration of the effect” value in series [3] (0.10 mg/kg p.o.) and in series [3] (0.20 mg/kg p.o.) were 60 min and 90 min, respectively. For the same compound, the “Maximum decrease” value in series [3] (0.10 mg/kg p.o.) is listed as 30 ± 10 mm of mercury; in series [3] (0.20 mg/kg p.o.) it was 56 ± 11 mm of mercury. The same compound yielded an LD50 in series [4] of 500 to 1000 mg/kg.

Take `CC1(C)C=C(N2CCCC2=O)c2cc(C#N)ccc2O1` [Product B, 6-cyano-4-(2-oxopyrrolidin-1-yl)-2,2-dimethylchromene]: in series [1], the IC50 is 70 nM.

`CC1(C)C=C(n2ccccc2=O)c2cc(Br)ccc2O1` [SR 45374, 6-Bromo-4-(1,2-dihydro-2-oxopyrid-l-yl)-2,2dimethylchromene] yielded an IC50 in series [1] of 7.9 nM. Besides, in series [3] (0.10 mg/kg p.o.), the “Duration of the effect” value was above 120 min and the “Maximum decrease” value was 32 ± 6 mm of mercury.

In series [1], `CC1(C)Oc2ccc(Cl)cc2[C@@H](n2ccccc2=O)[C@@H]1O` (relative stereo) [Product E, trans-6-chloro-4-(1,2-dihydro-2-oxopyrid-1-yl)-2,2-dimethylchroman-3-ol] showed an IC50 of 190 nM.

As to `CC1(C)C=C(n2ccccc2=O)c2cc(C#N)ccc2O1` [SR 44866, 6-Cyano-4-(1,2-dihydro-2-oxopyrid-1-yl)-2,2-dimethylchromene], the IC50 in series [1] worked out at 7.1 nM; in series [2], 1500 nM. The “Concentration producing 50 per cent reduction in action potential duration: times lower than that of product A” value in series [2] (versus product A) was found to be 10 times. The “Duration of the effect” value in series [3] (0.02 mg/kg p.o.) is 90 min; in series [3] (0.03 mg/kg p.o.) it was above 120 min. In addition, the “Maximum decrease” value in series [3] (0.02 mg/kg p.o.) is reported as 34 ± 6 mm of mercury; in series [3] (0.03 mg/kg p.o.) it was 41 ± 6 mm of mercury. Also, in series [5], the “Antiarrhythmic activity (reducing the number of extrasystoles or restoring a sinus rhythm)” value was “substantial antiarrhythmic activity”. Also, the LD50 in series [4] is 1000 mg/kg. The compound further registered an LD0 in series [6] of 500 mg/kg. For the same compound, in series [7], the “Activity relative to product A” value was “about 10 times”.
